In ChEMBL document CHEMBL1687846, “Ex vivo activity of histone deacetylase inhibitors against multidrug-resistant clinical isolates of Plasmodium falciparum and P. vivax” (Antimicrob Agents Chemother, 2011):

Columns and labels:
Plasmodium falciparum [1] = assay: Antimalarial activity against Plasmodium falciparum assessed as parasites growth inhibition using giemsa staining after 24 to 56 hrs by microscopic analysis in presence of 10% human serum; assay type: functional, organism-based
Plasmodium vivax [2] = assay: Antimalarial activity against trophozoites stage of Plasmodium vivax assessed as parasites growth inhibition using giemsa staining after 24 to 56 hrs by microscopic analysis in presence of 20% human serum; assay type: functional, organism-based
Plasmodium falciparum [3] = assay: Antimalarial activity against ring stage of Plasmodium falciparum assessed as parasites growth inhibition using giemsa staining after 24 to 56 hrs by microscopic analysis in presence of 10% human serum; assay type: functional, organism-based
Plasmodium falciparum [4] = assay: Antimalarial activity against chloroquine-sensitive Plasmodium falciparum 3D7 assessed as inhibition of [3H]hypoxanthine incorporation; assay type: functional, organism-based
Plasmodium falciparum [5] = assay: Antimalarial activity against trophozoites stage of Plasmodium falciparum assessed as parasites growth inhibition using giemsa staining after 24 to 56 hrs by microscopic analysis in presence of 10% human serum; assay type: functional, organism-based
Plasmodium vivax [6] = assay: Antimalarial activity against Plasmodium vivax assessed as parasites growth inhibition using giemsa staining after 24 to 56 hrs by microscopic analysis in presence of 20% human serum; assay type: functional, organism-based
Plasmodium falciparum [7] = assay: microbe, parasite or virus in culture; conditions: K1, 3 h
Description: Antimalarial activity against chloroquine-resistant Plasmodium falciparum K1 assessed as inhibition of [3H]hypoxanthine incorporation

Plasmodium vivax [8] = assay: Antimalarial activity against ring stage of Plasmodium vivax assessed as parasites growth inhibition using giemsa staining after 24 to 56 hrs by microscopic analysis in presence of 20% human serum; assay type: functional, organism-based

Structure (SMILES)	IC50 (Plasmodium falciparum [1]) [µM]	IC50 (Plasmodium vivax [2]) [µM]	IC50 (Plasmodium falciparum [3]) [µM]	IC50 (Plasmodium falciparum [4]) [µM]	IC50 (Plasmodium falciparum [5]) [µM]	IC50 (Plasmodium vivax [6]) [µM]	IC50 (Plasmodium falciparum [7]) [µM]	IC50 (Plasmodium vivax [8]) [µM]
C[C@H]1[C@H](OC(=O)CCC(=O)O)O[C@@H]2O[C@@]3(C)CC[C@H]4[C@H](C)CC[C@@H]1[C@@]24OO3 [ARTESUNATE]	0.00092	0.00039	0.00088	0.002	0.00119	0.00074	0.001	0.00075
Clc1ccc2c(N3CCN(CCCN4CCN(c5ccnc6cc(Cl)ccc56)CC4)CC3)ccnc2c1 [PIPERAQUINE]	0.0108	0.0159	–	0.003	–	0.0132	0.011	0.0155
OC(c1cc(C(F)(F)F)nc2c(C(F)(F)F)cccc12)C1CCCCN1 (configuration not stated) [MEFLOQUINE]	0.0063	0.0102	–	–	–	0.0077	–	0.0092
CCN(CC)Cc1cc(Nc2ccnc3cc(Cl)ccc23)ccc1O	0.005	0.0211	–	0.002	0.0096	0.0091	–	–
CCN(CC)CCCC(C)Nc1ccnc2cc(Cl)ccc12 (configuration not stated) [CHLOROQUINE]	–	0.841	–	–	–	0.0404	–	–
O=C(CCCCC[C@H](NC(=O)c1cc2ccccc2[nH]1)C(=O)Nc1cccc2cccnc12)NO	0.266	0.214	0.238	–	0.467	0.278	–	0.327
O=C(/C=C/c1ccccc1)N[C@@H](CCCCCC(=O)NO)C(=O)Nc1cccc2cccnc12	0.533	0.438	0.492	–	0.519	0.503	–	0.545
